From PubChem BioAssay AID463101 (The Scripps Research Institute Molecular Screening Center, 2010) come the findings set out here.

Molecules are shown by their SMILES. Active and inactive are the calls of the source.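 Rule for the calls: active = at 63 nM, GSTO1 inhibition of at least 80% or band labeling of at least 80% relative to 1 µM; inactive = the rest.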

The target of the experiment is Glutathione S-transferase omega-1 (Homo sapiens) (UniProt P78417). As to the kind of experiment: alkyne analogs labeling GSTO1 in proteome, late-stage follow-up, mechanism study for GSTO1 inhibitor project, cell lysate, MDA-MB-435 proteome, click chemistry, set 2 (AID 463101). Conditions: MDA-MB-435 soluble proteome, gel ABPP fluorescence; for outcome / labeling: direct click chemistry labeling assay; for labeling: click chemistry direct labeling series, at 0.25 µM, stronger effect = higher value; for inhibition: in situ competitive ABPP, probe SE-Rh, at 1 µM (top of the series).

In general, inhibition refers to the percentage by which the read-out fell short of the control.

Glutathione S-transferase omega-1 (Homo sapiens), sequence (P78417 whole entry, looked up): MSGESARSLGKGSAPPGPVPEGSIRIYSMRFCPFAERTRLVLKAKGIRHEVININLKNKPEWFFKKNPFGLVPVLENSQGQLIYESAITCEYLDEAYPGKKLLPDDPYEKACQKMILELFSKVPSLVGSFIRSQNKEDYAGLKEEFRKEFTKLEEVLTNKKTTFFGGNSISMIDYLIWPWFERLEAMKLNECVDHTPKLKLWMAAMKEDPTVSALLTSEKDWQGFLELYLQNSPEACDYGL

As for `C#CCN(CCCN(C(=O)CCl)c1ccc([N+](=O)[O-])cc1)C(=O)C(F)(F)F`, the outcome was active, the labeling worked out at 94% and the inhibition was 100%.

As for `C#CCCC(=O)NCCCN(C(=O)CCl)c1ccc([N+](=O)[O-])cc1`, the result was inactive, the labeling stood at 77% and the inhibition is 100% (inactive).
